Results: patent US20230172204A1 (BASF SE, priority 2020, published 2023)

Tests used:
[1] = tested on: Phakopsora pachyrhizi (F129L); assay: Protective control of soybean rust on soybeans (PHAKPA P6); type: in vivo; details: for % PHAKPA (F129L) Disease level P6 at 4 ppm: protective P6, 4 ppm; for % PHAKPA (F129L) Disease level P6 at 4 ppm / % PHAKPA (F129L) Disease level P6 at 16 ppm: soybean rust F129L; for % PHAKPA (F129L) Disease level P6 at 16 ppm: protective P6, 16 ppm
[2] = tested on: Phakopsora pachyrhizi (F129L); assay: Protective control of soybean rust on soybeans (PHAKPA P2); type: in vivo; details: for PHAKPA (F129L) Disease level (%) P2 at 4 ppm / PHAKPA (F129L) Disease level (%) P2 at 16 ppm: P2 protective, % diseased leaf area; for % PHAKPA (F129L) Disease level P2 at 4 ppm: protective P2, 4 ppm; for % PHAKPA (F129L) Disease level P2 at 4 ppm / % PHAKPA (F129L) Disease level P2 at 16 ppm: soybean rust F129L; for % PHAKPA (F129L) Disease level P2 at 16 ppm: protective P2, 16 ppm
[3] = P6 protective, % diseased leaf area

Row | Structure (SMILES) | PHAKPA (F129L) Disease level (%) P6 at 4 ppm ([1]; P6 protective, 4 ppm, % diseased leaf area) | % PHAKPA (F129L) Disease level P6 at 4 ppm [1] | % PHAKPA (F129L) Disease level P6 at 16 ppm [1] | PHAKPA (F129L) Disease level (%) P2 at 4 ppm [2] | % PHAKPA (F129L) Disease level P2 at 4 ppm [2] | % PHAKPA (F129L) Disease level P2 at 16 ppm [2] | PHAKPA (F129L) Disease level (%) P6 at 16 ppm [1, 3] | PHAKPA (F129L) Disease level (%) P2 at 16 ppm [2]
1 | CNC(=O)/C(=N/OC)c1cccc(C)c1CO/N=C(\C)c1cccc(Br)c1 [Ex. 58] | 4% | 4% | 0% | 0% | 2% | 0% |  | 
2 | CO/N=C(/C(=O)OC)c1cccc(C)c1CO/N=C(\C)c1cccc(Br)c1 [Ex. 56] |  | 67% | 19% |  | 43% | 24% | 15% | 32%
3 | CNC(=O)/C(=N/OC)c1cccc(C)c1CO/N=C(\C)c1cccc(CC2COC2)c1 [compound 161] |  | 100% | 90% |  | 100% | 100% |  | 
4 | CO/N=C(/C(=O)OC)c1cccc(C(F)F)c1CO/N=C(\C)c1cccc(C(F)(F)F)c1 [Ex. 24] |  | 4% | 28% |  | 36% | 60% |  | 
5 | CO/N=C(/C(=O)OC)c1cccc(C)c1CO/N=C(\C)c1ccccc1OC [compound 123] |  | 90% | 78% |  | 100% | 82% |  | 
6 | CNC(=O)/C(=N/OC)c1cccc(C)c1CO/N=C(\C)c1cccc(N2CC(F)(F)C2)c1 [compound 44] |  | 77% | 21% |  | 77% | 17% |  | 
7 | CO/N=C(/C(=O)OC)c1cccc(C)c1CO/N=C(\C)c1ccc(OC(F)(F)F)cc1 [compound 133] |  | 2% | 0% |  | 1% | 0% |  | 
8 | CNC(=O)/C(=N/OC)c1cccc(C)c1CO/N=C(\C)c1cc(F)c(F)cc1C(F)(F)F [compound 410] |  | 35% | 1% |  | 9% | 0% |  | 
9 | CO/N=C(/C(=O)OC)c1cccc(C)c1CO/N=C(\C)c1ccccc1OC(F)(F)F [compound 236] |  | 97% | 100% |  | 97% | 77% |  | 
10 | CNC(=O)/C(=N/OC)c1cccc(C)c1CO/N=C(\C)c1cccc(C(F)F)c1 [Ex. 12] |  | 37% | 9% |  | 25% | 1% | 9% | 3%
11 | CO/N=C(/C(=O)OC)c1cccc(C)c1CO/N=C(\SC)c1cccc(Cl)c1 [drawing 982, reference compound] |  |  |  | 47% |  |  | 18% | 
12 | CNC(=O)/C(=N/OC)c1cccc(Br)c1CO/N=C(\C)c1ccccc1 [compound 396] |  | 4% | 0% |  | 3% | 0% |  | 
13 | CNC(=O)/C(=N/OC)c1cccc(C)c1CO/N=C(\C)c1ccc(C)c(C)c1 [compound 139] |  | 72% | 24% |  | 47% | 2% |  | 
14 | CNC(=O)/C(=N/OC)c1cccc(C)c1CO/N=C(\CC(F)(F)F)c1cc(Cl)cc(Cl)c1 [compound 255] |  | 100% | 87% |  | 97% | 83% |  | 
15 | CNC(=O)/C(=N/OC)c1cccc(C)c1CO/N=C(\C)c1ccc(OC(F)(F)F)cc1C(F)(F)F [compound 363] |  | 25% | 2% |  | 29% | 1% |  | 
16 | CO/N=C(/C(=O)OC)c1cccc(C)c1CO/N=C(\SC)c1cccc(C)c1 [drawing 972, reference compound] |  |  |  | 60% |  |  | 30% | 
17 | CNC(=O)/C(=N/OC)c1cccc(C)c1CO/N=C(\C)c1ccc(Cc2ccccc2)cc1C(F)(F)F [compound 407] |  | 17% | 4% |  | 12% | 6% |  | 
18 | CO/N=C(/C(=O)OC)c1cccc(C)c1CO/N=C(\C)c1cccc(C#N)c1 [Ex. 104] |  | 19% | 11% |  | 22% | 15% | 28% | 37%
19 | CO/N=C(/C(=O)OC)c1ccccc1CO/N=C(/c1ccc(Cl)cc1)C(F)F [reference compound] |  |  |  |  |  |  | 90% | 100%
20 | CO/N=C(/C(=O)OC)c1cccc(C)c1CO/N=C(\C)c1cccc(Br)c1F [compound 134] |  | 22% | 7% |  | 37% | 10% |  | 
21 | CO/N=C(/C(=O)OC)c1cccc(C)c1CO/N=C(\C)c1ccc(C#N)cc1C(F)(F)F [compound 423] |  | 93% | 53% |  | 100% | 57% |  | 
22 | CO/N=C(/C(=O)OC)c1cccc(C)c1CO/N=C(\C)c1c(F)cc(F)cc1C(F)(F)F [compound 360] |  | 80% | 5% |  | 53% | 9% |  | 
